Measurements as given in PubChem BioAssay (NCI).
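Step 1: Grow cells in 96-well plates. Step 2: Expose to compound for 48 hours at 5 concentrations. Step 3: Interpolate endpoints linearly; if unreached, use highest concentration. Here, GI50 denotes the concentration required for 50% inhibition of growth. Definition used: TGI = concentration required for complete inhibition of growth.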

Key:
Assay in all cases: growth of human tumour cells (NCI), 48 h
HCC-2998 colon = test system: HCC-2998 colon
SK-MEL-5 melanoma = test system: SK-MEL-5 melanoma
OVCAR-8 ovarian = test system: OVCAR-8 ovarian
HCT-116 colon = test system: HCT-116 colon
MOLT-4 leukemia = test system: MOLT-4 leukemia
A549 NSCLC = test system: A549 NSCLC
SF-539 CNS = test system: SF-539 CNS
COLO 205 colon = test system: COLO 205 colon
LOX IMVI melanoma = test system: LOX IMVI melanoma
HCT-15 colon = test system: HCT-15 colon

## CC(=O)NNc1nc(C)c(C(=O)NNC(=O)C(=O)Nc2c(Cl)cc([N+](=O)[O-])cc2Cl)s1
HCC-2998 colon
  TGI: > 100 µM
SK-MEL-5 melanoma
  TGI: > 100 µM
OVCAR-8 ovarian
  TGI: > 100 µM
HCT-116 colon
  TGI: > 100 µM
MOLT-4 leukemia
  TGI: 97.6 µM
A549 NSCLC
  TGI: > 100 µM
SF-539 CNS
  TGI: 66.8 µM
COLO 205 colon
  TGI: > 100 µM
LOX IMVI melanoma
  TGI: > 100 µM
HCT-15 colon
  TGI: > 100 µM

## C/C(CC(=O)CCC(=O)Nc1cccc(C(F)(F)F)c1)=N\NC(=O)NN
HCC-2998 colon
  TGI: > 100 µM
SK-MEL-5 melanoma
  TGI: > 100 µM
OVCAR-8 ovarian
  TGI: > 100 µM
HCT-116 colon
  TGI: > 100 µM
MOLT-4 leukemia
  TGI: > 100 µM
A549 NSCLC
  TGI: > 100 µM
SF-539 CNS
  TGI: > 100 µM
COLO 205 colon
  TGI: > 100 µM
HCT-15 colon
  TGI: > 100 µM

## COc1cc(CNc2cnc3cc(N)cc(N)c3n2)cc(OC)c1
HCC-2998 colon
  GI50: 11.7 µM
  TGI: 25 µM
SK-MEL-5 melanoma
  GI50: 18.7 µM
  TGI: 36.1 µM
OVCAR-8 ovarian
  GI50: 22.6 µM
  TGI: 57.6 µM
HCT-116 colon
  GI50: 16.3 µM
  TGI: 29.8 µM
MOLT-4 leukemia
  GI50: 36.9 µM
  TGI: > 100 µM
A549 NSCLC
  GI50: 33 µM
  TGI: > 100 µM
SF-539 CNS
  GI50: 23.2 µM
  TGI: 46.9 µM
HCT-15 colon
  GI50: 17.6 µM
  TGI: 38.1 µM

## CC1(c2ccc(F)cc2)C(C#N)C(=O)NC(=O)C1C#N (configuration not stated)
HCC-2998 colon
  TGI: > 100 µM
SK-MEL-5 melanoma
  TGI: > 100 µM
OVCAR-8 ovarian
  TGI: > 100 µM
MOLT-4 leukemia
  TGI: > 100 µM
A549 NSCLC
  TGI: > 100 µM
SF-539 CNS
  TGI: > 100 µM
COLO 205 colon
  TGI: > 100 µM
LOX IMVI melanoma
  TGI: > 100 µM
HCT-15 colon
  TGI: > 100 µM

## COC(=O)CC1CCN(C#N)CC1CC[N+](=O)[O-] (configuration not stated)
HCC-2998 colon
  TGI: > 100 µM
SK-MEL-5 melanoma
  TGI: > 100 µM
OVCAR-8 ovarian
  TGI: > 100 µM
HCT-116 colon
  TGI: > 100 µM
MOLT-4 leukemia
  TGI: > 100 µM
A549 NSCLC
  TGI: > 100 µM
SF-539 CNS
  TGI: > 100 µM
COLO 205 colon
  TGI: > 100 µM
HCT-15 colon
  TGI: > 100 µM

## O=C(O)CSc1ccc([N+](=O)[O-])cc1[N+](=O)[O-]
HCC-2998 colon
  TGI: > 100 µM
OVCAR-8 ovarian
  TGI: > 100 µM
HCT-116 colon
  TGI: > 100 µM
A549 NSCLC
  TGI: > 100 µM
LOX IMVI melanoma
  TGI: > 100 µM
HCT-15 colon
  TGI: > 100 µM

## COC1(OC)CCC2C1C1CCC(OC)(OC)C21 (configuration not stated)
HCC-2998 colon
  TGI: > 50 µM
SK-MEL-5 melanoma
  TGI: > 50 µM
OVCAR-8 ovarian
  TGI: > 50 µM
HCT-116 colon
  TGI: > 50 µM
MOLT-4 leukemia
  TGI: > 50 µM
A549 NSCLC
  TGI: > 50 µM
SF-539 CNS
  TGI: > 50 µM
COLO 205 colon
  TGI: > 50 µM
HCT-15 colon
  TGI: > 50 µM

## CCCCC(=O)OCC(=O)[C@]1(O)Cc2c(O)c3c(c(O)c2[C@@H](OC2CC(NC(=O)C(F)(F)F)C(O)C(C)O2)C1)C(=O)c1c(OC)cccc1C3=O (some centres not stated)
HCC-2998 colon
  TGI: 3.81 µM
SK-MEL-5 melanoma
  TGI: 1.64 µM
OVCAR-8 ovarian
  TGI: > 39.6 µM
HCT-116 colon
  TGI: 2.91 µM
A549 NSCLC
  TGI: 3.83 µM
SF-539 CNS
  TGI: 2.98 µM
COLO 205 colon
  TGI: 3.69 µM
LOX IMVI melanoma
  TGI: 1.37 µM
HCT-15 colon
  TGI: 6.9 µM

## CN1C(=O)C(C)(C)C2(SC(C)(C)C2(C)C)N(C)C1=S (configuration not stated)
HCC-2998 colon
  TGI: > 100 µM
OVCAR-8 ovarian
  TGI: > 100 µM
HCT-116 colon
  TGI: > 100 µM
MOLT-4 leukemia
  TGI: > 100 µM
A549 NSCLC
  TGI: > 100 µM
SF-539 CNS
  TGI: > 100 µM
COLO 205 colon
  TGI: > 100 µM
HCT-15 colon
  TGI: > 100 µM

## Clc1cc2nsnc2c(Cl)n1
HCC-2998 colon
  TGI: > 100 µM
SK-MEL-5 melanoma
  TGI: 32.7 µM
MOLT-4 leukemia
  TGI: 43.6 µM
A549 NSCLC
  TGI: > 100 µM
SF-539 CNS
  TGI: 46.1 µM
COLO 205 colon
  TGI: 31.7 µM
LOX IMVI melanoma
  TGI: > 100 µM
HCT-15 colon
  TGI: 45.6 µM

## N#CC(c1ccc(Cl)cc1)c1cccc(C(C#N)c2ccc(Cl)cc2)n1 (configuration not stated)
HCC-2998 colon
  TGI: > 100 µM
OVCAR-8 ovarian
  TGI: > 100 µM
MOLT-4 leukemia
  TGI: > 100 µM
A549 NSCLC
  TGI: > 100 µM
COLO 205 colon
  TGI: 43 µM

## COC1CCC2C(NS(=O)(=O)c3ccc(C)cc3)CCCC2O1 (configuration not stated) (tested in a mixture with another compound)
HCC-2998 colon
  TGI: > 34.5 µM
SK-MEL-5 melanoma
  TGI: 19.4 µM
OVCAR-8 ovarian
  TGI: > 34.5 µM
HCT-116 colon
  TGI: 15.8 µM
MOLT-4 leukemia
  TGI: 20.9 µM
A549 NSCLC
  TGI: > 34.5 µM
SF-539 CNS
  TGI: > 34.5 µM
LOX IMVI melanoma
  TGI: 13 µM
HCT-15 colon
  TGI: > 34.5 µM

## COc1cc2c(cc1OC)-c1c3cc(O)ccc3nn[n+]1CC2
HCC-2998 colon
  TGI: > 100 µM
SK-MEL-5 melanoma
  TGI: > 100 µM
OVCAR-8 ovarian
  TGI: > 100 µM
HCT-116 colon
  TGI: > 100 µM
MOLT-4 leukemia
  TGI: > 100 µM
A549 NSCLC
  TGI: > 100 µM
SF-539 CNS
  TGI: > 100 µM
COLO 205 colon
  TGI: > 100 µM
LOX IMVI melanoma
  TGI: > 100 µM

## Cn1c2ccccc2c2c(Nc3ccccc3)c3ccccc3nc21
HCC-2998 colon
  GI50: 40.9 µM
  TGI: > 100 µM
SK-MEL-5 melanoma
  GI50: 13.7 µM
  TGI: 28.1 µM
OVCAR-8 ovarian
  GI50: 27.3 µM
  TGI: > 100 µM
HCT-116 colon
  GI50: 13.2 µM
  TGI: 36.1 µM
MOLT-4 leukemia
  GI50: 7.89 µM
  TGI: > 100 µM
SF-539 CNS
  GI50: 12.1 µM
  TGI: 28.6 µM
COLO 205 colon
  GI50: 59 µM
  TGI: > 100 µM
HCT-15 colon
  GI50: 14.1 µM
  TGI: 60.5 µM

## C=C(CN1CCN(c2ccc(Cl)cc2F)CC1)c1ccc(C(=O)Nc2ccccc2N)cc1
HCC-2998 colon
  GI50: 3.84 µM
  TGI: > 60.5 µM
SK-MEL-5 melanoma
  GI50: 2.3 µM
  TGI: > 22.4 µM
OVCAR-8 ovarian
  GI50: 3.4 µM
  TGI: > 100 µM
HCT-116 colon
  GI50: 1.85 µM
  TGI: > 94.2 µM
A549 NSCLC
  GI50: 2.56 µM
  TGI: > 30.5 µM
SF-539 CNS
  GI50: 2.02 µM
  TGI: > 52.8 µM
COLO 205 colon
  GI50: 16.7 µM
  TGI: > 95.3 µM
LOX IMVI melanoma
  GI50: 3 µM
  TGI: 8.43 µM
HCT-15 colon
  GI50: 2.16 µM
  TGI: > 100 µM

## O=CC[C@H]1C(=O)C[C@@H]2CCC[C@@H]21
HCC-2998 colon
  TGI: > 100 µM
SK-MEL-5 melanoma
  TGI: > 100 µM
OVCAR-8 ovarian
  TGI: > 100 µM
HCT-116 colon
  TGI: > 100 µM
MOLT-4 leukemia
  TGI: > 100 µM
A549 NSCLC
  TGI: > 100 µM
SF-539 CNS
  TGI: > 100 µM
COLO 205 colon
  TGI: > 100 µM
HCT-15 colon
  TGI: > 100 µM

## CN(C)C(=N)c1ccccc1
HCC-2998 colon
  TGI: > 100 µM
OVCAR-8 ovarian
  TGI: > 100 µM
HCT-116 colon
  TGI: > 100 µM
A549 NSCLC
  TGI: > 100 µM
SF-539 CNS
  TGI: > 100 µM
COLO 205 colon
  TGI: > 100 µM
LOX IMVI melanoma
  TGI: > 100 µM

## CCN(CCO)CC1CCCC2CCCCC21 (configuration not stated)
HCC-2998 colon
  TGI: > 100 µM
SK-MEL-5 melanoma
  TGI: > 100 µM
OVCAR-8 ovarian
  TGI: > 100 µM
HCT-116 colon
  TGI: > 100 µM
A549 NSCLC
  TGI: > 100 µM
SF-539 CNS
  TGI: > 100 µM
COLO 205 colon
  TGI: > 100 µM
HCT-15 colon
  TGI: > 100 µM

## N#CCCN(CCC#N)c1ccc(/C=C2\N=C(c3cc([N+](=O)[O-])ccc3Cl)OC2=O)cc1
HCC-2998 colon
  TGI: 52.6 µM
SK-MEL-5 melanoma
  TGI: 33.4 µM
OVCAR-8 ovarian
  TGI: 37.7 µM
HCT-116 colon
  TGI: > 100 µM
MOLT-4 leukemia
  TGI: 57.7 µM
A549 NSCLC
  TGI: > 100 µM
SF-539 CNS
  TGI: > 100 µM
LOX IMVI melanoma
  TGI: 46.5 µM
HCT-15 colon
  TGI: > 100 µM

## CC1=C(C(=O)NCc2ccccc2)C(/C=C/c2ccccc2)C(C(=O)NCc2ccccc2)=C(C)N1
HCC-2998 colon
  TGI: > 100 µM
SK-MEL-5 melanoma
  TGI: > 100 µM
OVCAR-8 ovarian
  TGI: > 100 µM
HCT-116 colon
  TGI: > 100 µM
MOLT-4 leukemia
  TGI: > 100 µM
A549 NSCLC
  TGI: > 100 µM
SF-539 CNS
  TGI: > 100 µM
LOX IMVI melanoma
  TGI: > 100 µM
HCT-15 colon
  TGI: > 100 µM

## COc1ccc2c3c1C(=O)CCCC3CO2 (configuration not stated)
HCC-2998 colon
  TGI: > 100 µM
SK-MEL-5 melanoma
  TGI: > 100 µM
OVCAR-8 ovarian
  TGI: > 100 µM
MOLT-4 leukemia
  TGI: > 100 µM
A549 NSCLC
  TGI: > 100 µM
SF-539 CNS
  TGI: > 100 µM
COLO 205 colon
  TGI: > 100 µM
LOX IMVI melanoma
  TGI: > 100 µM
HCT-15 colon
  TGI: > 100 µM

## Brc1ccc(N=c2nc3ccccn3n3nc(-c4ccccc4)cc23)cc1
SK-MEL-5 melanoma
  TGI: > 100 µM
OVCAR-8 ovarian
  TGI: > 100 µM
HCT-116 colon
  TGI: > 100 µM
MOLT-4 leukemia
  TGI: > 100 µM
A549 NSCLC
  TGI: > 100 µM
SF-539 CNS
  TGI: > 100 µM
COLO 205 colon
  TGI: > 100 µM
HCT-15 colon
  TGI: > 100 µM

## Cc1nc2ccccc2c(=O)n1-c1ccccc1I
HCC-2998 colon
  TGI: > 100 µM
SK-MEL-5 melanoma
  TGI: > 100 µM
OVCAR-8 ovarian
  TGI: > 100 µM
HCT-116 colon
  TGI: > 100 µM
MOLT-4 leukemia
  TGI: > 100 µM
A549 NSCLC
  TGI: > 100 µM
COLO 205 colon
  TGI: > 100 µM
HCT-15 colon
  TGI: > 100 µM
